Experimental data taken from EP4600258A1, “KERATIN YK93-6, PREPARATION METHOD THEREFOR, PHARMACEUTICAL COMPOSITION THEREOF, AND USE THEREOF” (INSTITUTE OF MATERIA MEDICA, CHINESE ACADEMY OF MEDICAL …, priority 2022, dated 2024).
Where a name gives a salt, the structure may show the parent alone.

Key:
mouse pain model = assay: Pharmacodynamic test on mouse pain model (acetic acid-induced writhing); assay type: in vivo, Male Kunming mice; conditions: dose 50mg/kg; writhing within 15 minutes after 1% acetic acid intraperitoneally
EL-4 lymphoma = conditions: single time
Method: Subcutaneous inoculation of EL-4 cell suspension to replicate a mouse lymphoma model: The EL-4 tumor tissue was ground into a suspension using a glass homogenizer, the tumor suspension was aspirated with a syringe, the number of live cells was calculated, the cell concentration was adjusted to 2.0*10^6/ml with physiological saline, and then the suspension was injected into the left armpit of mice with 0.2 ml/mouse. […] On the day of treatment, weight was measured, 20µl of blood was obtained from the orbital blood and the routine blood analysis was performed.
The data from the groups were compared with each other by T.TEST, and P<0.05 was considered as a significant difference.

[1] = 100 mg/kg intraperitoneal, blood routine test, P<0.05

SMILES	Number of writhing (mouse pain model)	leukocytes (EL-4 lymphoma; [1])	lymphocytes (EL-4 lymphoma; [1])	monocytes (EL-4 lymphoma; [1])	neutrophils (EL-4 lymphoma; [1])	Tumor weight (EL-4 lymphoma; dose 0.1 g/kg, intraperitoneal)
COc1cccc(C2(O)CCCCC2CN(C)C)c1 (stereo not drawn) [Tramadol Hydrochloride]	0.375±0.74	–	–	–	–	–
O=P1(N(CCCl)CCCl)NCCCO1 (stereo not drawn) [cyclophosphamide, Cyclophosphamide]	–	significantly reduced	significantly reduced	significantly reduced	significantly reduced	0.12 ± 0.03 g
